Test results taken from US20190255022A1, “WOUND-HEALING AGENT” (NIPPON CHEMIPHAR CO., LTD., priority 2016, published 2019).
Marks after values point to notes of the source that are not given here.

Test system: wound in diabetes mouse (db/db mouse) model
Experiment: Effect of compound A on wound in diabetes mouse (db/db mouse) model
Assay type: in vivo
Settings: for wound area ratio: 0.05 mL once a day, mean±standard error, n=8
Procedure: The compound A was weighed in the required amount, and polyethylene glycol 400 (PEG400) was added to the compound to prepare liquids having final concentrations of the compound of 0.001, 0.01, and 0.1 w/v %. In order to prepare ointments having final concentrations of the compound of 0.0005, 0.005, and 0.05 w/w %, PEG4000 melted by warming at 65° C. was added to the liquids, and the liquids were stirred until they solidified at room temperature to prepare ointments having concentrations of the compound of 0.0005, 0.005, and 0.05 w/w %.
Diabetes mice (db/db mice) were anesthetized with isoflurane, and a 1.5-cm square of skin including the back median line as the center axis of each mouse was removed with ophthalmic scissors. A polyurethane film was stuck so as to cover the skin-lacking wound part and surrounding parts to prepare the wound.
The administration was performed once a day at a volume of 0.05 mL. As for the administration method, the administration was performed with a disposable polypropylene injection syringe attached to a 23G needle by inserting the needle into a gap between the wound and the polyurethane film covering the wound part. On the day when the wound was produced and the days when the wound area was measured, the compound was administered to the wound part by using a disposable polypropylene injection syringe attached to a 23G needle before sticking the polyurethane film.
On days 14 to 20 of the administration (the day on which the administration was started is day 1 of the administration), the administration was performed by peeling off the polyurethane film under isoflurane anesthesia, cleaning the wound with absorbent cotton containing physiological saline, administering the ointment with a disposable polypropylene injection syringe, and then the polyurethane film was stuck on again.
On days 1, 4, 8, 12, 16, and 21 of the administration, the wound part was traced. That is, after the polyurethane film was removed (in the case of the day 1 of the administration, before the administration and sticking of the film), a plastic sheet was placed on the wound part, the contour of the wound part was traced on the plastic sheet (tracing was performed by using a felt pen so that the external periphery of the wound part would coincide with the internal periphery of the line drawn with the felt pen), and a copy of the sheet on which tracing was performed was used as the source of raw data. The area of the inside of the traced line (mm^2) was measured once using an area-line meter (PLANIX EX, Tamaya Technics Inc.) on the copy of the sheet on which tracing was performed. The results are expressed as ratio of change (%) calculated from the wound area (mm^2) of each measurement day, and the wound area (mm^2) of the day 1 of the wound creation (before administration).
Significant difference test was performed by using a commercial statistical analysis program (SAS System, SAS Institute Japan, Inc.). Statistical significance levels lower than 5% were considered to be significant, and the results are indicated as those of the level lower than 5% (*; p<0.05) and those of the level lower than 1% (**; p<0.01).
As for the test method, the multiple comparison of Dunnett's method was used for the comparison between the vehicle-administered group and compound A-administered groups.

Cc1cc2c(CCc3sc(-c4ccc(C(F)(F)F)cc4)nc3C(C)C)noc2cc1OCC(=O)O [compound A, [3-[2-[4-isopropyl-2-(4-trifluoromethyl)phenyl-5-thiazolyl]ethyl]-5-methyl-1,2-benzisoxazol-6-yl]oxyacetic acid]
wound area ratio (0.0005% compound A ointment, day 1 of administration): 100.0 ± 0.0%
wound area ratio (0.0005% compound A ointment, day 4 of administration): 96.9 ± 1.7%
wound area ratio (0.0005% compound A ointment, day 8 of administration): 95.2 ± 2.4%
wound area ratio (0.0005% compound A ointment, day 12 of administration): 82.9 ± 2.7%
wound area ratio (0.0005% compound A ointment, day 16 of administration): 73.4 ± 2.7%
wound area ratio (0.0005% compound A ointment, day 21 of administration): 67.6 ± 3.8%
wound area ratio (0.005% compound A ointment, day 1 of administration): 100.0 ± 0.0%
wound area ratio (0.005% compound A ointment, day 4 of administration): 97.2 ± 2.4%
wound area ratio (0.005% compound A ointment, day 8 of administration): 95.0 ± 2.2%
wound area ratio (0.005% compound A ointment, day 12 of administration): 84.1 ± 1.6%
wound area ratio (0.005% compound A ointment, day 16 of administration): 72.1 ± 1.7%
wound area ratio (0.005% compound A ointment, day 21 of administration): 69.1 ± 3.0%
wound area ratio (0.05% compound A ointment, day 1 of administration): 100.0 ± 0.0%
wound area ratio (0.05% compound A ointment, day 4 of administration): 96.0 ± 2.1%
wound area ratio (0.05% compound A ointment, day 8 of administration): 90.3 ± 2.6* %
wound area ratio (0.05% compound A ointment, day 12 of administration): 78.6 ± 1.6** %
wound area ratio (0.05% compound A ointment, day 16 of administration): 69.2 ± 2.1%
wound area ratio (0.05% compound A ointment, day 21 of administration): 65.5 ± 2.1%
wound area compared with the vehicle-administered group (0.05% compound A-administered group, day 8 and day 12 of the administration): significantly smaller
